Columns and labels:
CDC25A = CDC25A and PGK1 mRNA by real-time RT-PCR in siRNA-transfected HCT116 cells; type: cell-based, human; conditions: siRNA 24 h then hypoxia 16 h
Method: Real-Time RT-PCR. Real-time RT-PCR was performed essentially as described previously (Koshiji et al. 2005). Primer and probe (Applied Biosystems) sequences were as follows: CDC25A, forward 5′-[…]-3′ (SEQ ID NO: 25), reverse 5′-[…]-3′ (SEQ ID NO: 26), probe 5′-FAM-[…]-MGB-3′ (SEQ ID NO: 27). PGK-1 (FAM-MGB probe) and ACTB (VIC-MGB probe) were detected with endogenous control reagents from Applied Biosystems. β-actin primers and probe were included into each reaction for normalization. All the experiments were repeated three times in triplicate, and representative results were presented in mean±standard error.
(§1) RNA Interference. Transfection with siRNA duplexes and siRNA sequence information were described previously (Koshiji et al. 2005). CHK1 siRNA was described previously (Zhao et al. 2002). Luciferase siRNA was used as negative control.

NBS1 [1] = experiment: NBS1 mRNA levels by real-time PCR in HCT116 cells; type: cell-based, human; conditions: siRNA, hypoxia 1% O2 16 h
Method: HCT116 TP53^+/+, HCT116 TP53^−/− cells (Koshiji et al., 2004), and U-2 OS were grown in McCoy's 5A medium (Invitrogen), and HeLa cells in DMEM. For hypoxic treatment, cells were incubated in a hypoxic chamber (Innova CO-48, New Brunswick Scientific) maintaining 1% O2 and 5% CO2. Recombinant adenovirus generation and infection were as previously described (Koshiji et al., 2004).
Total RNA extraction, reverse transcription, and quantitative PCR were performed essentially as described previously (Koshiji et al., 2005). Taqman Gene Expression Assay kits for NBS1, MRE11A, RAD50, MSH2, and ACTB were purchased from Applied Biosystems. All experiments were repeated three times in triplicates, and representative results were presented as means±standard errors.

HIF-2α = experiment: Western blot after siRNA transfection of HCT116 cells; type: cell-based, human
Method: (§2) Western Blot. Western blot analysis was carried out as described previously.
as §1

HIF-1α = experiment: as above; type: cell-based, human
Method: as §2, §1

CDC25A promoter = experiment: CDC25A reporter (luciferase) assay in HCT116 cells; type: cell-based, human; conditions: hypoxia
Method: Reporter Assay. Reporter assays were conducted as described previously (Huang et al. 2002). The Myc effect on the reporter was examined by cotransfection with 0.4 μg pMyc (Koshiji et al. 2004a) or as specified.

Sp1 = molecular target: T1, Sp1 (Oryctolagus cuniculus, UniProt G1SL61); experiment: anti-Sp1 immunoprecipitation of in vitro translated products; type: binding, rabbit; conditions: translated in rabbit reticulocyte lysate
T1 construct: from tissue; host or cells: rabbit reticulocyte lysate (in vitro translation system)
Method: Previously, it was shown that Myc displacement is mediated by the N-terminal HIF-1α (1-329), which competes with Myc for Sp1 binding in the MSH2 promoter (Koshiji et al, 2005). […] […] […] Of note, removal of part of the PAS-B from the C terminus (codon 299-329) destroyed Sp1 binding.
Immunoprecipitations and Western blot was performed essentially as described previously (Huang et al., 1998; Koshiji et al., 2005). In vitro translation and immunoprecipitations are described as before (Gu et al., 2001; Koshiji et al., 2005). […]

NBS1 [2] = experiment: NBS1 protein levels by immunoblot in U-2 OS cells expressing PAS-B variants; type: cell-based; conditions: forced expression in U-2 OS cells
Method: Immunoprecipitations and Western blot was performed essentially as described previously (Huang et al., 1998; Koshiji et al., 2005). In vitro translation and immunoprecipitations are described as before (Gu et al., 2001; Koshiji et al., 2005). The wheat germ extract system was purchased from Promega. λ protein phosphatase (New England Biolabs) and resveratrol (Sigma) with indicated concentrations were added to the in vitro translated products before immunoprecipitations.
U-2 OS cells were transfected with the Nucleofector system (Amaxa). Briefly, 1×10^6 cells were suspended in 100 μl pre-warmed Nucleofector Solution Kit V containing 2 μg plasmids. After electroporation the cells were transferred immediately into pre-warmed complete McCoy's 5A medium and seeded in 6-well plates. Cells were harvested 48 h after transfection.

HCT116 cells = experiment: Matrigel invasion; type: cell-based, human; conditions: retrovirally infected HCT116 cells, 24 h
Method: (§3) A, retrovirally infected HCT116 cells expressing EYFP, HIF-1α PAS-B, and mutant were assayed for Matrigel invasion. Images of cells on the membrane side were taken 24 h later. B, U-2 OS cells infected as above were assayed for anchorage-independent growth on soft agar. HIF-1α PAS-B expressed cells gave rise to formation of colonies 40 times more than others. HCT116 cells (known to grow on soft agar) were used as a positive control. Mock, uninfected cells.

U-2 OS cells [3] = experiment: anchorage-independent growth on soft agar; type: cell-based; conditions: retrovirally infected U-2 OS cells
Method: as §3

U-2 OS cells [4] = experiment: tumor formation in a xenografted mouse model; type: in vivo; conditions: athymic mice, subcutaneous injection of 1 million U-2 OS cells, within three weeks
Text: Female BALB/c-nu/nu mice were subjected to bilateral, subcutaneous injections in the back with 1 million of U-2 OS cells, or those expressing EYFP, HIF-1α PAS-B, or the HIF-1α PAS-B mutant. A total of ten mice were divided into two groups with one type of cells injected on one side and another on the other side.

β-catenin = experiment: immunoblotting of epithelial marker in retrovirally infected U-2 OS cells; type: cell-based
Method: A, Cells as indicated were infected by retroviruses expressing EYFP, EYFP-PAS-B fusion, and EYFP-PAS-B mutant. […] B, U-2 OS and those infected with retroviruses as above were analyzed by immunoblotting individual protein expression as indicated.

U-2 OS cells [5] = experiment: immunofluorescent staining of γ-H2AX foci (DNA DSBs); type: cell-based; conditions: U-2 OS cells transiently expressing PAS-B variants
Method: To ascertain the functional relevance of NBS1 repression by hypoxia, the extent of DNA damage was assessed by immunofluorescent staining of γ-H2AX foci, a most sensitive method for quantifying DNA DSBs (Rogakou et al, 1998, 1999). […] Furthermore, results also show strikingly colocalized foci of γ-H2AX and 53BP1, the latter of which is known to interact with various DNA repair proteins including γ-H2AX in response to DSBs (Schultz et al, 2000). Thus, hypoxic cells experience DNA DSBs, presumably resulting from the NBS1 repression.
Immunofluorescence staining was performed essentially as described previously (Rogakou et al, 1999) with mouse anti-γ-H2AX antibody (Upstate) and rabbit anti-53BP1 (Novus Biologicals). Secondary antibodies were anti-mouse Alexa-546 and anti-rabbit Alexa-488 (Molecular Probes). Samples were mounted in antifade media, and were examined by fluorescent and laser-scanning confocal microscopy with a Nikon PCM 2000.

[6] = molecular target: synthetic peptide including HIF-2α residues 314-331
[7] = molecular target: synthetic peptide corresponding to HIF-1α residues 299-329
[8] = molecular target: synthetic peptide harboring HIF-2α T324V mutation

T1 sequence (G1SL61 1-788): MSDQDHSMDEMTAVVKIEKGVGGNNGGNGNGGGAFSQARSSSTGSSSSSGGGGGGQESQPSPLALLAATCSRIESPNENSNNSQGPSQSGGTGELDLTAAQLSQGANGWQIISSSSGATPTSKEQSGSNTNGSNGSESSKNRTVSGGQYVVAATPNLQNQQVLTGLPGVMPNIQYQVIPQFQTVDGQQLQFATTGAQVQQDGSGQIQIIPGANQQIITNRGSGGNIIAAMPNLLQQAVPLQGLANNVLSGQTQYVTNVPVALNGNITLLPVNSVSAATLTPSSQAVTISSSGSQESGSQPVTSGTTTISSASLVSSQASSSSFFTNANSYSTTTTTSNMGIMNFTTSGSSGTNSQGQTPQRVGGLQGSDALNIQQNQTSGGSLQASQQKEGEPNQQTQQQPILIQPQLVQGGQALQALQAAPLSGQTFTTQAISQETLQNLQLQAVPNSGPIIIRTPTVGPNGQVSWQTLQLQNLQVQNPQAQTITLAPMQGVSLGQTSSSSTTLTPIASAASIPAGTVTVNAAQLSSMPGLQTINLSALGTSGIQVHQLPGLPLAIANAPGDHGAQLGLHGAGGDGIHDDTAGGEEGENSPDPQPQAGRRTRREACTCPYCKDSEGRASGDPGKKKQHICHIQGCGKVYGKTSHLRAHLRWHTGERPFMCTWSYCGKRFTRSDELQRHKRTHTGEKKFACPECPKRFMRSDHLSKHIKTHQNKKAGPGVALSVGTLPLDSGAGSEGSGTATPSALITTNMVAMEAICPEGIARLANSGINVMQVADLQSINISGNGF

**Q.** “5′-AACTGATGACCAGCAACTTGA-3′ [HIF1A siRNA]” was tested. Which “effect on hypoxic CDC25A down-regulation and PGK1 up-regulation” value (CDC25A) did it give?
**A.** effectively blocked the CDC25A down-regulation

**Q.** And the “effect on NBS1 and MSH2 downregulation and PGK1 upregulation in hypoxic cells” value (NBS1 [1])?
**A.** abrogated

**Q.** What about the HIF-2α levels (HIF-2α) of the same molecule?
**A.** remained unaffected

**Q.** And the “decrease of HIF-1α protein levels” value (HIF-1α)?
**A.** > 80%

**Q.** And the “hypoxic inhibition of CDC25A reporter expression” value (CDC25A promoter)?
**A.** abrogated

**Q.** With “PAS1B: HIF-1α PAS-B domain (codon 194-329)” as the molecule, how does the Sp1 binding (Sp1) read?
**A.** sufficient for Sp1 interaction

**Q.** What about the NBS1 protein levels (NBS1 [2]) of the same molecule?
**A.** sufficient to eliminate NBS1 protein levels

**Q.** And the invasiveness versus controls (HCT116 cells)?
**A.** much more invasive

**Q.** What about the “formation of colonies on soft agar relative to others” value (U-2 OS cells [3]) of the same molecule?
**A.** 40 times

**Q.** What about the tumor nodules formation (U-2 OS cells [4]) of the same molecule?
**A.** formed tumor nodules

**Q.** What about the β-catenin protein expression (β-catenin) of the same molecule?
**A.** marked decrease

**Q.** And the “γ-H2AX foci colocalized with 53BP1” value (U-2 OS cells [5])?
**A.** significantly increased

B1: recombinant PKD1 (Upstate Biotechnology) (protein)
chain: MSAPPVLRPPSPLLPVAAAAAAAAAALVPGSGPGPAPFLAPVAAPVGGISFHLQIGLSREPVLLLQDSSGDYSLAHVREMACSIVDQKFPECGFYGMYDKILLFRHDPTSENILQLVKAASDIQEGDLIEVVLSASATFEDFQIRPHALFVHSYRAPAFCDHCGEMLWGLVRQGLKCEGCGLNYHKRCAFKIPNNCSGVRRRRLSNVSLTGVSTIRTSSAELSTSAPDEPLLQKSPSESFIGREKRSNSQSYIGRPIHLDKILMSKVKVPHTFVIHSYTRPTVCQYCKKLLKGLFRQGLQCKDCRFNCHKRCAPKVPNNCLGEVTINGDLLSPGAESDVVMEEGSDDNDSERNSGLMDDMEEAMVQDAEMAMAECQNDSGEMQDPDPDHEDANRTISPSTSNNIPLMRVVQSVKHTKRKSSTVMKEGWMVHYTSKDTLRKRHYWRLDSKCITLFQNDTGSRYYKEIPLSEILSLEPVKTSALIPNGANPHCFEITTANVVYYVGENVVNPSSPSPNNSVLTSGVGADVARMWEIAIQHALMPVIPKGSSVGTGTNLHRDISVSISVSNCQIQENVDISTVYQIFPDEVLGSGQFGIVYGGKHRKTGRDVAIKIIDKLRFPTKQESQLRNEVAILQNLHHPGVVNLECMFETPERVFVVMEKLHGDMLEMILSSEKGRLPEHITKFLITQILVALRHLHFKNIVHCDLKPENVLLASADPFPQVKLCDFGFARIIGEKSFRRSVVGTPAYLAPEVLRNKGYNRSLDMWSVGVIIYVSLSGTFPFNEDEDIHDQIQNAAFMYPPNPWKEISHEAIDLINNLLQVKMRKRYSVDKTLSHPWLQDYQTWLDLRELECKIGERYITHESDDLRWEKYAGEQGLQYPTHLINPSASHSDTPETEETEMKALGERVSIL
**Q.** How did the “PKD1-mediated phosphorylation in an in vitro kinase assay (c.p.m.)” value (from here on “PKD1-mediated phosphorylation … (c.p.m.)”) [6] turn out when B1 was run?
**A.** a HIF-2α peptide, but not its HIF-1α counterpart, was robustly phosphorylated

**Q.** What about the “PKD1-mediated phosphorylation … (c.p.m.)” value [7] of the same molecule?
**A.** a HIF-2α peptide, but not its HIF-1α counterpart, was robustly phosphorylated

**Q.** And the “PKD1-mediated phosphorylation … (c.p.m.)” value [8]?
**A.** replacement of Thr-324 with valine abolished phosphorylation
